Results taken from patent US5877199A, “Heterocyclic compounds, their preparation and their therapeutic use” (priority 1994, dated 1999).

System: M2 muscarinic receptors in the heart
Test: not given
Conditions: Tucek et al. 1993; cited from earlier work

For `C=CC[N@@+]12CC[C@@]34c5ccccc5N5/C=C6/[C@H]7C[C@H]8[C@@]9(CC[N@@+]8(CC=C)C/C7=C/CO)c7ccccc7N(/C=C(/[C@@H](C[C@@H]31)/C(=C\CO)C2)[C@H]54)[C@@H]69` [alcuronium], the “effect on affinity of M2 muscarinic receptors for NMS” value is listed as “allosterically increases the affinity of M2 muscarinic receptors in the heart for NMS”.

System: heart receptors
Test: not given
Conditions: Riker and Wescoe 1951; cited from earlier work

For `CC[N+](CC)(CC)CCOc1cccc(OCC[N+](CC)(CC)CC)c1OCC[N+](CC)(CC)CC` [gallamine], the “action on heart receptors” value is given as “negative action on heart receptors”.

Same assay, conditions: subsequently established; cited from earlier work

For `CC[N+](CC)(CC)CCOc1cccc(OCC[N+](CC)(CC)CC)c1OCC[N+](CC)(CC)CC` [gallamine], the “competitive antagonism for acetylcholine” value is listed as “not a competitive antagonist for acetylcholine”.

Target: T1, m1 muscarinic receptors (Homo sapiens, UniProt P11229)
T1 construct: expressed in transfected cells; host or cells: CHO (Chinese Hamster Ovary) cells, membranes
T1 sequence (P11229 1-460): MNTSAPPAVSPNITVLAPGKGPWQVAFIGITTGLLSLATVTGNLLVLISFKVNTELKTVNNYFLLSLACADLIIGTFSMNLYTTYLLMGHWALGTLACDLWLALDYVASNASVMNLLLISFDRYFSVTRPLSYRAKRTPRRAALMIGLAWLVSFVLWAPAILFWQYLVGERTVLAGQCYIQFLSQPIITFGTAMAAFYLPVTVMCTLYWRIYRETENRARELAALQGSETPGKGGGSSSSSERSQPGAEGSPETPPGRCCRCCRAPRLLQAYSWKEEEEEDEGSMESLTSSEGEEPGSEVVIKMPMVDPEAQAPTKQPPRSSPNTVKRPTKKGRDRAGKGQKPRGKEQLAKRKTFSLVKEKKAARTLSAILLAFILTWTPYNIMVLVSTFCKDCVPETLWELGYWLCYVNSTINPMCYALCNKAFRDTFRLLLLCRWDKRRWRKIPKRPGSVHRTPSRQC
Test: Effect on ACh binding: ACh inhibition of 3H-NMS binding (indirect assay) on CHO cell membranes
Conditions: tested at 3 μg/ml; 0.15 nM 3H-NMS, 30 μM ACh, 0.2 mM GTP, pH 7.4, 30° C., two hours
Text: The compounds of the present invention may be assayed for allosteric activity at m1 muscarinic receptors as described below, although the assays we describe are not necessarily exhaustive, and other assays may be employed, as desired, to establish allosterism.
A suitable cell line is CHO (Chinese Hamster Ovary), which are readily engineered to express only one receptor sub-type.
To obtain the large amount of cell membranes required, plates of 530 cm^2 culture area were used. CHO cells which express m1, m2, m3 and m4 receptors were grown separately in MEM alpha medium containing 10% newborn calf serum and antibiotics. When cells reached confluence, they were washed twice with 10 ml of 20 mM HEPES containing 10 mM EDTA (pH 7.4), scraped into the same buffer and homogenized using a Polytron (trademark) homogenizer (setting 5-6 for 5 sec×2). Membrane pellets were obtained by centrifugation (40000×g, 10 min, 4° C.) and resuspended in 20 mM HEPES-0.1 mM EDTA (pH 7.4). Centrifugation and resuspension were repeated twice to wash the cell membranes. After measurement of membrane protein, the membranes (1 or 2 mg protein/ml) were stored at -70° C.
While the direct assay measures ACh (=acetylcholine) binding only to the high affinity state, the indirect assay measures effects only at the low affinity state. This is achieved by including 0.2 mM GTP in the assay. In this assay a fixed concentration of ^3 H-NMS (roughly the Kd value) is incubated in the absence and presence of a fixed concentration of ACh (at about the IC50 value) and the effects of three concentrations of test agent are measured, again in the absence and presence of ACh.
Calculating the effects on ^3 H-NMS binding alone is as follows: binding in the presence of the agent is expressed as a percentage of binding in its absence and, if the effect is inhibitory, an IC50 is estimated graphically. The assay also contains a single high concentration of ^3 H-NMS (4 nM, about 30 times the Kd) which provides an estimate of Bmax (i.e. maximum binding).
Expressing the effect on cold ACh binding will be explained with reference to FIGS. 1a, b and c. These figures show theoretical data and the effects of the transformations described below. In FIGS. 1a and 1b ^3 H-NMS and cold ACh are present at their Kd concentrations; in FIG. 1a the agent has a negative allosteric effect on ^3 H-NMS, while in FIG. 1b it has a positive allosteric effect on ^3 H-NMS. The left panels show the amount of ^3 H-NMS specifically bound in the assay. If the affinity of ACh is reduced by the test agent, as shown in the top panels of FIGS. 1a and 1b, the inhibition by ACh will decrease, but the counts recovered will also depend on the effect of the agent on ^3 H-NMS binding alone. To calculate the effect on ACh binding the inhibitory effect of ACh is first calculated as a percent of its own control in the absence of ACh. Next it is assumed that fractional inhibition is the same as tractional occupancy, and inhibition in the presence of agent is expressed as a percentage of inhibition in the absence of agent. The effects of these transformations are shown in the centre panels. Expressing inhibition by ACh in the presence of agent as a percentage of inhibition in the absence of agent allows the effect of the agent on cold ACh binding to be seen on the same scale as the effect on ^3 H-NMS and ^3 H-ACh binding and is generally preferred.
If the concentration of ^3 H-NMS used in the indirect assay is around the Kd value or less, the transformation described above provides a qualitative and semi-quantitative measure of the agent's effect. If a higher concentration of ^3 H-NMS is used, or if the agent has a positive allosteric effect on ^3 H-NMS, then the results of this transformation may be misleading. […] It is assumed that ACh binds to a single affinity state i.e. that its inhibition curve has a slope of 1, and so an IC50 is calculated from the percentage inhibition of control binding. […]

Going from `Cc1cc(CC(=O)O)c([S+](C)[O-])c2c1c1ccccc1n2Cc1ccccc1` (centres unmarked) [Example 200, (9-Benzyl-1-methylsulfinyl-4-methylcarbazol-2-yl)acetic Acid] to `Cc1cc(CC(=O)O)c(S(C)(=O)=O)c2c1c1ccccc1n2Cc1ccccc1` [Example 202, (9-Benzyl-1-methylsulfonyl-4-methylcarbazol-2-yl)acetic Acid], the “Effect on ACh Binding” value falls from 3.59 to 2.66.

First: Cc1cc(CC(=O)O)c(SCc2ccccc2)c2c1c1ccccc1n2C [Example 206, (1-Benzylthio-4,9-dimethylcarbazol-2-yl)acetic Acid]
Second: CSc1c(CC(=O)O)cc(C)c2c3ccccc3n(CCc3ccccc3)c12 [Example 212, [4-Methyl-1-methylthio-9-(2-phenethyl)carbazol-2-yl]acetic Acid]
The “Effect on ACh Binding” value of the first is lower: 2.13 for the first, 4.93 for the second.

Compared with `CCCSc1c(CC(=O)O)cc(C)c2c3ccccc3n(C)c12` [Example 210, (4,9-Dimethyl-1-propylthiocarbazol-2-yl)acetic Acid], `CCCSc1c(CC(=O)O)cc(C)c2c3ccccc3n(Cc3ccccc3)c12` [Example 217, (9-Benzyl-4-methyl-1-n-propylthiocarbazol-2-yl)acetic Acid] is higher in “Effect on ACh Binding” value: 2.03 for the first, 3.99 for the second.

Going from `CSc1c(CC(=O)O)cc(C)c2c3ccccc3n(CCCc3ccccc3)c12` [Example 214, [4-Methyl-1-methylthio-9-(3-phenylpropyl)carbazol-2-yl]acetic Acid] to `CSc1c(CC(=O)O)cc(C)c2c3ccccc3n(CCc3cccc(Cl)c3)c12` [Example 229, {9-[2-(3-Chlorophenyl)ethyl]-4-methyl-1-methylthiocarbazol-2-yl}acetic Acid], the “Effect on ACh Binding” value rises from 4.34 to 5.79.

First: Cc1cc(CC(=O)O)c(SC(C)C)c2c1c1ccccc1n2Cc1ccccc1 [Example 218, (9-Benzyl-4-methyl-1-i-propylthiocarbazol-2-yl)acetic Acid]
Second: CC(C)Sc1c(CC(=O)O)cc(C(C)C)c2c3ccccc3n(Cc3ccccc3)c12 [Example 235, (9-Benzyl-4-isopropyl-1-isopropylthiocarbazol-2-yl)acetic Acid]
The “Effect on ACh Binding” value of the first is higher: 4.91 for the first, 2.82 for the second.

First: CSc1c(CC(=O)O)cc(C(F)(F)F)c2c3ccccc3n(Cc3ccccc3)c12 [Example 231, (9-Benzyl-1-methylthio-4-trifluoromethyl carbazol-2-yl)acetic Acid]
Second: CSc1c(CC(=O)O)ccc2c1c1ccccc1n2Cc1ccccc1 [Example 233, (9-Benzyl-4-methylthiocarbazol-3-yl)acetic Acid]
The “Effect on ACh Binding” value of the first is higher: 3.78 for the first, 2.26 for the second.

System: muscarinic receptors
Test: not given
Conditions: reported; cited from earlier work

For `COc1cc2c3cc1Oc1cc(ccc1O)C[C@@H]1c4c(cc(OC)c(O)c4Oc4ccc(cc4)C[C@@H]3N(C)CC2)CC[N+]1(C)C` [Tubocurarine], the “allosteric effects on antagonist binding” value is listed as “negative allosteric effects on antagonist binding”.
In the case of batrachotoxin, the “allosteric effects on antagonist binding” value is given as “negative allosteric effects on antagonist binding”.
